Measured values reported in patent US20120035180A1, “PHARMACEUTICAL COMPOSITION FOR TREATING CANCER COMPRISING CHLORIN E6-FOLIC ACID CONJUGATE COMPOUND AND CHITOSAN” (priority 2009, published 2012).

Tests used:
[1] = test system: sarcoma M-1; assay: Growth dynamics and growth inhibition of sarcoma M-1 after PDT; assay type: in vivo, rats
Method: The power density was 0.51 W/cm^2, the output power was 0.4 W, and the spot light diameter was 1 cm. […] Monitoring over radiating power was conducted by a universal power meter included in the laser device “ ? 680-2000”.

[2] = test system: sarcoma M-1; assay: Necrotic area in sarcoma M-1 after PDT; assay type: in vivo, rats; conditions: 10.0 mg/kg, 1 hr exposure after application
Method: After fixation, transverse sections of the tumor nodule in its highest diameter were made, and pictures were taken by a camera connected to a computer.
For quantitative assessment of necroses formed after PDT, computer analysis of color tints of histo-topographic tumor slides was performed using a special program.
The program included an algorithm of blue color identification (Evans blue), which stained viable areas of the tumor. Tumor areas killed from direct cytotoxic effect or due to structural-functional disorders of microcirculation were not stained in blue. The ratio of all non-stained dots to the total amount of dots in the fence of the tumor slide was considered to be the destruction efficiency.
For this purpose, a laser medical instrument “ ? 680-2000” (BIOSPEC, Moscow) was used to perform the exposure at a wavelength of 670 nm in a dose of 100 J/cm^2. The power density was 0.51 W/cm^2, the output power was 0.4 W, and the spot light diameter was 1 cm. Time of exposure was […]. Monitoring over radiating power was conducted by a universal power meter included in the laser device “ ? 680-2000”.

[3] = test system: Hela cells; assay: Accumulation in Hela cells; assay type: cell-based; conditions: for concentration in Hela cells: 2×10^−7 M/l, 37° C.
Method: The cellular accumulation and the targeted delivery of the photoactive compounds were investigated using Hela cells, which is one of the numerous tumor cell types that overexpress folate receptors.
Cells were cultivated for 3 days in medium 199, and transferred to Hank's solution/medium 199 (9/1). After 3 hours, the cell were collected by trypsin treatment from the substrate and placed in Hank's solution (10^5 κπ/ml). To cell suspensions, chlorin e6 conjugates were added at a concentration of 2×10^−7 M/l, and incubated at 37° C. After 1, 5, 10, 15, and 24 hours, the samples were centrifuged, the pellet was washed with the cooled Hank's solution, and transferred to Hank's solution at a concentration being equal to that in the initial suspension.

[4] = test system: Hela cells; assay: Competition assay with exogenous folic acid in Hela cells; assay type: cell-based; conditions: 4 μM/l folic acid, 24 hours
Description: Then, the sample was centrifuged, the supernatant was taken, and the pellet was rewashed with cooled Hank's solution. The obtained pellet was again transferred into Hank's solution.

[γ-(6-aminohexyl)folic acid]-chlorin e6 [chlorin e6 conjugate]
Growth inhibition rate of sarcoma M-1 of rats in volume to the control ([1]; 2.5 mg/100 g + 100 J/cm^2 for 1 h, day 7): 47.5 | Growth inhibition rate of sarcoma M-1 of rats in volume to the control ([1]; 2.5 mg/100 g + 100 J/cm^2 for 1 h, day 10): 79.4 | Growth inhibition rate of sarcoma M-1 of rats in volume to the control ([1]; 2.5 mg/100 g + 100 J/cm^2 for 1 h, day 12): 87.6 | Growth inhibition rate of sarcoma M-1 of rats in volume to the control ([1]; 2.5 mg/100 g + 100 J/cm^2 for 1 h, day 14): 89.8 | Growth inhibition rate of sarcoma M-1 of rats in volume to the control ([1]; 2.5 mg/100 g + 100 J/cm^2 for 1 h, day 17): 94.8 | Growth inhibition rate of sarcoma M-1 of rats in volume to the control ([1]; 2.5 mg/100 g + 100 J/cm^2 for 1 h, day 19): 94.1 | Growth inhibition rate of sarcoma M-1 of rats in volume to the control ([1]; 2.5 mg/100 g + 100 J/cm^2 for 1 h, day 21): 94.2 | Growth inhibition rate of sarcoma M-1 of rats in volume to the control ([1]; 2.5 mg/100 g + 100 J/cm^2 for 1 h, day 24): 93.6 | Growth dynamics of sarcoma M-1 (volume) ([1]; 2.5 mg/kg + 100 J/cm^2 for 1 h, day 7 after tumor transplant): 0.25 ± 0.03 cm^3 | Growth dynamics of sarcoma M-1 (volume) ([1]; 2.5 mg/kg + 100 J/cm^2 for 1 h, day 10 after tumor transplant): 0.28 ± 0.03 cm^3 | Growth dynamics of sarcoma M-1 (volume) ([1]; 2.5 mg/kg + 100 J/cm^2 for 1 h, day 12 after tumor transplant): 0.34 ± 0.06 cm^3 | Growth dynamics of sarcoma M-1 (volume) ([1]; 2.5 mg/kg + 100 J/cm^2 for 1 h, day 14 after tumor transplant): 0.41 ± 0.09 cm^3 | Growth dynamics of sarcoma M-1 (volume) ([1]; 2.5 mg/kg + 100 J/cm^2 for 1 h, day 17 after tumor transplant): 0.46 ± 0.11 cm^3 | Growth dynamics of sarcoma M-1 (volume) ([1]; 2.5 mg/kg + 100 J/cm^2 for 1 h, day 19 after tumor transplant): 0.69 ± 0.27 cm^3 | Growth dynamics of sarcoma M-1 (volume) ([1]; 2.5 mg/kg + 100 J/cm^2 for 1 h, day 21 after tumor transplant): 0.96 ± 0.38 cm^3 | Growth dynamics of sarcoma M-1 (volume) ([1]; 2.5 mg/kg + 100 J/cm^2 for 1 h, day 24 after tumor transplant): 1.19 ± 0.48 cm^3 | Growth inhibition rate of sarcoma M-1 of rats in volume to the control ([1]; 5 mg/100 g + 100 J/cm^2 for 1 h, day 7): 36.9 | Growth inhibition rate of sarcoma M-1 of rats in volume to the control ([1]; 5 mg/100 g + 100 J/cm^2 for 1 h, day 10): 77.9 | Growth inhibition rate of sarcoma M-1 of rats in volume to the control ([1]; 5 mg/100 g + 100 J/cm^2 for 1 h, day 12): 89.1 | Growth inhibition rate of sarcoma M-1 of rats in volume to the control ([1]; 5 mg/100 g + 100 J/cm^2 for 1 h, day 14): 92.6 | Growth inhibition rate of sarcoma M-1 of rats in volume to the control ([1]; 5 mg/100 g + 100 J/cm^2 for 1 h, day 17): 95.8 | Growth inhibition rate of sarcoma M-1 of rats in volume to the control ([1]; 5 mg/100 g + 100 J/cm^2 for 1 h, day 19): 95.9 | Growth inhibition rate of sarcoma M-1 of rats in volume to the control ([1]; 5 mg/100 g + 100 J/cm^2 for 1 h, day 21): 96.9 | Growth inhibition rate of sarcoma M-1 of rats in volume to the control ([1]; 5 mg/100 g + 100 J/cm^2 for 1 h, day 24): 97.1 | Growth dynamics of sarcoma M-1 (volume) ([1]; 5 mg/kg + 100 J/cm^2 for 1 h, day 7 after tumor transplant): 0.29 ± 0.02 cm^3 | Growth dynamics of sarcoma M-1 (volume) ([1]; 5 mg/kg + 100 J/cm^2 for 1 h, day 10 after tumor transplant): 0.300 ± .03 cm^3 | Growth dynamics of sarcoma M-1 (volume) ([1]; 5 mg/kg + 100 J/cm^2 for 1 h, day 12 after tumor transplant): 0.30 ± 0.03 cm^3 | Growth dynamics of sarcoma M-1 (volume) ([1]; 5 mg/kg + 100 J/cm^2 for 1 h, day 14 after tumor transplant): 0.30 ± 0.03 cm^3 | Growth dynamics of sarcoma M-1 (volume) ([1]; 5 mg/kg + 100 J/cm^2 for 1 h, day 17 after tumor transplant): 0.37 ± 0.05 cm^3 | Growth dynamics of sarcoma M-1 (volume) ([1]; 5 mg/kg + 100 J/cm^2 for 1 h, day 19 after tumor transplant): 0.47 ± 0.11 cm^3 | Growth dynamics of sarcoma M-1 (volume) ([1]; 5 mg/kg + 100 J/cm^2 for 1 h, day 21 after tumor transplant): 0.50 ± 0.14 cm^3 | Growth dynamics of sarcoma M-1 (volume) ([1]; 5 mg/kg + 100 J/cm^2 for 1 h, day 24 after tumor transplant): 0.54 ± 0.17 cm^3 | Growth inhibition rate of sarcoma M-1 of rats in volume to the control ([1]; 10 mg/100 g + 100 J/cm^2 for 1 h, day 7): 56.5 | Growth inhibition rate of sarcoma M-1 of rats in volume to the control ([1]; 10 mg/100 g + 100 J/cm^2 for 1 h, day 10): 86.0 | Growth inhibition rate of sarcoma M-1 of rats in volume to the control ([1]; 10 mg/100 g + 100 J/cm^2 for 1 h, day 12): 93.8 | Growth inhibition rate of sarcoma M-1 of rats in volume to the control ([1]; 10 mg/100 g + 100 J/cm^2 for 1 h, day 14): 95.8 | Growth inhibition rate of sarcoma M-1 of rats in volume to the control ([1]; 10 mg/100 g + 100 J/cm^2 for 1 h, day 17): 98.1 | Growth inhibition rate of sarcoma M-1 of rats in volume to the control ([1]; 10 mg/100 g + 100 J/cm^2 for 1 h, day 19): 95.2 | Growth inhibition rate of sarcoma M-1 of rats in volume to the control ([1]; 10 mg/100 g + 100 J/cm^2 for 1 h, day 21): 98.8 | Growth inhibition rate of sarcoma M-1 of rats in volume to the control ([1]; 10 mg/100 g + 100 J/cm^2 for 1 h, day 24): 98.9 | Growth dynamics of sarcoma M-1 (volume) ([1]; 10 mg/kg + 100 J/cm^2 for 1 h, day 7 after tumor transplant): 0.20 ± 0.03 cm^3 | Growth dynamics of sarcoma M-1 (volume) ([1]; 10 mg/kg + 100 J/cm^2 for 1 h, day 10 after tumor transplant): 0.19 ± 0.04 cm^3 | Growth dynamics of sarcoma M-1 (volume) ([1]; 10 mg/kg + 100 J/cm^2 for 1 h, day 12 after tumor transplant): 0.17 ± 0.03 cm^3 | Growth dynamics of sarcoma M-1 (volume) ([1]; 10 mg/kg + 100 J/cm^2 for 1 h, day 14 after tumor transplant): 0.17 ± 0.03 cm^3 | Growth dynamics of sarcoma M-1 (volume) ([1]; 10 mg/kg + 100 J/cm^2 for 1 h, day 17 after tumor transplant): 0.17 ± 0.03 cm^3 | Growth dynamics of sarcoma M-1 (volume) ([1]; 10 mg/kg + 100 J/cm^2 for 1 h, day 19 after tumor transplant): 0.17 ± 0.03 cm^3 | Growth dynamics of sarcoma M-1 (volume) ([1]; 10 mg/kg + 100 J/cm^2 for 1 h, day 21 after tumor transplant): 0.20 ± 0.03 cm^3 | Growth dynamics of sarcoma M-1 (volume) ([1]; 10 mg/kg + 100 J/cm^2 for 1 h, day 24 after tumor transplant): 0.20 ± 0.03 cm^3 | anti-tumor effect of PDT [2]: most prominent anti-tumor effect | concentration in Hela cells ([3]; incubation time 1 hours): 0.40 relative units/10^4cl. | concentration in Hela cells ([3]; incubation time 5 hours): 1.80 relative units/10^4cl. | concentration in Hela cells ([3]; incubation time 10 hours): 2.50 relative units/10^4cl. | concentration in Hela cells ([3]; incubation time 15 hours): 12.5 relative units/10^4cl. | concentration in Hela cells ([3]; incubation time 24 hours): 15.0 relative units/10^4cl. | kinetic of binding with cells ([3]; Hela cells): increases linearly over 20 hours | effect of free folic acid on uptake in Hela cells [4]: significantly reduced
